Measured values published in patent US20220370416A1, “COMPOUNDS AND METHODS FOR TARGETED DEGRADATION OF KRAS” (Arvinas Operations, Inc., priority 2020, published 2022).

Columns and labels:
[1] = target: KRAS^G12C (Homo sapiens, UniProt P01116, G12C); test: KRAS^G12C engagement and degradation by immunoblot in NCI-H2030 cells; type: cell-based; parameters: MRTX849-VHL bifunctional compounds engage and degrade endogenous KRAS^G12C in NCI-H2030 cells; endogenous in cells; host or cells: NCI-H2030, NCI-H358, MIA PaCa-2, SW1573, NCI-H23; conditions: for KRAS, two-way ANOVA significance vs DMSO: FIG. 9A
Protocol: NCI-H2030 (CRL-5914), MIA PaCa-2 (CRL-1420), NCI-H23 (CRL-5800), NCI-H358 (CRL-5807), and HCT-116 (CCL-247) cells were obtained from ATCC, expanded immediately, and frozen down. Vials were thawed and used within 20 passages. SW1573 cells were a gift from Arvinas and were handled in the same manner. NCI-H2030, NCI-H23, and NCI-H358 were cultured in RPMI (ATCC30-2001) supplemented with 10% FBS (Biological Industries; cat. no. S1480) and 1% Penicillin-Streptomycin (ThermoFisher; cat. no. 15140122). HCT-116 cells were maintained in high glucose DMEM (ThermoFisher; cat. no. 11965084) supplemented as above. MIA PaCa-2 cells were cultured in high glucose DMEM supplemented with 10% FBS, 2.5% horse serum (ThermoFisher; cat. no. 26050-088; lot 2109875), and 1% Penicillin-Streptomycin. SW1573 cells were maintained in DMEM/F12 Nutrient Mix with GlutaMAX supplement (ThermoFisher; cat. no. 10565018) with 10% FBS and 1% Penicillin-Streptomycin added. DPBS (ThermoFisher; cat. no. 14190250) was used to wash cells and 0.25% Trypsin-EDTA (ThermoFisher; cat. no. […]) was used to detach cells for passaging. […] The VHL ligand was generously provided by Arvinas.
Between 2.5×10^5 and 6.0×10^5 cells were seeded into 6-well plates (Corning; cat. no. 353046). The next day, media was removed and cells were treated with 2.5 μM LC-2 for 1, 2, 4, 8, 12, or 24 hours. […] For 24-hour time course experiments, cells were treated at the indicated times and concurrently lysed in RIPA buffer supplemented as described previously. For longer time course experiments and time courses in which cells were treated with LC-2 or LC-2 Epimer, cells were concurrently treated with either compound, then lysed by scraping in RIPA buffer at the indicated time points.
Between 2.5×10^5 and 5.0×10^5 cells were seeded into 6-well plates. The next day cells were pretreated with DMSO, 500 μM or 1 mM VHL ligand, 1 μM epoxomicin, 1 μM […], or 100 nM […] bafilomycin A1 for 1 hour. Media was then removed and cells were treated with DMSO, 2.5 μM LC-2 plus DMSO, 2.5 μM LC-2 Epimer plus DMSO, or co-treated with 2.5 μM LC-2 and the corresponding competitor/inhibitor. H2030 cells were treated for 4 hours and H23 cells were treated for 24 hours, after which cells were lysed by scraping in RIPA buffer supplemented as described previously.
Cell lysates were clarified at 21000×g for 15 mins at 4° C. Protein levels were quantified using a 50:1 mixture of bicinchoninic acid solution (Millipore Sigma; cat. no. B9643) and 4% (w/v) copper(II) sulfate solution (Millipore Sigma; cat. no. C2284) incubated at 37° C. for 30 mins. Absorbance values at 560 nm were read on an EnVision 2101 Multilabel Reader (PerkinElmer). Proteins were separated using 26 well Criterion TGX precast 4-15% (cat. no. 5671085) or 8-16% (cat. no. 5671105) gradient midi gels. After separation, proteins were transferred to nitrocellulose or PVDF membranes at 76 V for 2 hours at 4° C. Blots were then blocked in 5% milk in tris-buffered saline with Tween-20 (TBST; 20 mM Tris, 150 mM NaCl, 0.02% Tween-20). After blocking, blots were incubated in primary antibody overnight (12-18 hours) at 4° C. or for 2 hours at room temperature with mild agitation at the manufacturer's indicated dilution in either 5% milk or 5% BSA in TBST. Blots were then washed thrice with TBST for 5 mins at room temperature. After washing, blots were incubated with 1:5,000-1:10,000 of donkey anti-rabbit (GE Life Sciences; NA934) or sheep anti-mouse (GE Life Sciences; NA931) secondary antibody diluted in 5% milk for 1 hour at room temperature with mild agitation. Blots were again washed thrice with TBST for 5 mins. Chemiluminescent signal was generated using Amersham ECL Prime Western Blotting Detection Reagant (GE Life Sciences; cat. no. RPN2232) or SuperSignal West Femto Maximum Sensitivity Substrate (ThermoFisher; cat. no. 34095). Images were obtained using a Bio-Rad ChemiDoc Imager.

[2] = tested on: pErk; conditions: MIA PaCa-2, 2.5 μM LC-2, 6 and 24 hours
Protocol: Cell lysates were clarified at 21000×g for 15 mins at 4° C. Protein levels were quantified using a 50:1 mixture of bicinchoninic acid solution (Millipore Sigma; cat. no. B9643) and 4% (w/v) copper(II) sulfate solution (Millipore Sigma; cat. no. C2284) incubated at 37° C. for 30 mins. Absorbance values at 560 nm were read on an EnVision 2101 Multilabel Reader (PerkinElmer). Proteins were separated using 26 well Criterion TGX precast 4-15% (cat. no. 5671085) or 8-16% (cat. no. 5671105) gradient midi gels. After separation, proteins were transferred to nitrocellulose or PVDF membranes at 76 V for 2 hours at 4° C. Blots were then blocked in 5% milk in tris-buffered saline with Tween-20 (TBST; 20 mM Tris, 150 mM NaCl, 0.02% Tween-20). […]

[3] = NCI-H2030, homozygous KRAS^G12C

C=C(F)C(=O)N1CCN(c2nc(OC[C@@H]3CCCN3CCCOCCC(=O)N[C@H](C(=O)N3C[C@@H](O)C[C@H]3C(=O)NCc3ccc(-c4scnc4C)cc3)C(C)(C)C)nc3c2CCN(c2cccc4cccc(Cl)c24)C3)C[C@@H]1CC#N [LC-2 Epimer, (2S,4S)-1-((S)-2-(3-(3-((S)-2-(((7-(8-chloronaphthalen-1-yl)-4-((S)-3-(cyanomethyl)-4-(2-fluoroacryloyl)piperazin-1-yl)-5,6,7,8-tetrahydropyrido[3,4-d]pyrimidin-2-yl)oxy)methyl)pyrrolidin-1-yl)propoxy)propanamido)-3,3-dimethylbutanoyl)-4-hydroxy-N-(4-(4-methylthiazol-5-yl)benzyl)pyrrolidine-2-carboxamide]
earliest time KRAS^G12C binding seen ([1]; NCI-H2030, 2.5 μM): 1 h
KRAS engagement versus degradation ([1]; NCI-H2030, 2.5 μM, 4 hours): only KRAS engagement was observed

C=C(F)C(=O)N1CCN(c2nc(OC[C@@H]3CCCN3CCCOCCC(=O)N[C@H](C(=O)N3C[C@H](O)C[C@H]3C(=O)NCc3ccc(-c4scnc4C)cc3)C(C)(C)C)nc3c2CCN(c2cccc4cccc(Cl)c24)C3)C[C@@H]1CC#N [LC-2, (2S,4R)-1-((S)-2-(3-(3-((S)-2-(((7-(8-chloronaphthalen-1-yl)-4-((S)-3-(cyanomethyl)-4-(2-fluoroacryloyl)piperazin-1-yl)-5,6,7,8-tetrahydropyrido[3,4-d]pyrimidin-2-yl)oxy)methyl)pyrrolidin-1-yl)propoxy)propanamido)-3,3-dimethylbutanoyl)-4-hydroxy-N-(4-(4-methylthiazol-5-yl)benzyl)pyrrolidine-2-carboxamide]
Dmax ([1]; NCI-H2030): > 75%
KRAS, two-way ANOVA significance vs DMSO ([1]; NCI-H2030, 0.1 μM): N.S.
KRAS, two-way ANOVA significance vs DMSO ([1]; NCI-H2030, 0.25 μM): N.S.
earliest time KRAS^G12C binding seen ([1]; NCI-H2030, 2.5 μM): 1 h
time to maximum degradation ([1]; NCI-H2030, 2.5 μM): ≤ 8 h
KRAS degradation ([1]; NCI-H2030, 2.5 μM, 4 hours): ~65%
persistence of maximum degradation ([1]; NCI-H2030, 2.5 μM, 24 hour time course): persisted up to 24 hours
DC50 [1, 3]: 590 ± 200 nM
Dmax [1, 3]: >75%
lowest concentration inducing maximal degradation of endogenous KRAS^G12C ([1]; NCI-H2030 cells): 2.5 µM
pErk [2]: suppressed
